Measurements from article PMC8778818, “Synthesis, Structural Characterization and Anticancer Activity of New 5-Trifluoromethyl-2-thioxo-thiazolo[4,5-d]pyrimidine Derivatives” (Pharmaceuticals, 2022).

Legend:
T-47D = assay: NCI-60 screen, Breast Cancer T-47D; type: cell-based; conditions: for Growth of Cells (%): 10^−5 M one dose
C32 = assay: MTT cell viability assay, C32; type: cell-based, human; conditions: Homo sapiens, 72 h; for IC50: C32, MTT, mean ± SD
Procedure: (§1) Twelve compounds (2a-e, 3a-d and 4a-c) at a concentration range of 50–5000 μM were tested for their antiproliferative potential against four human cancer cell lines (A375—melanotic melanoma, C32—amelanotic melanoma, DU145—prostate cancer androgen-independent, MCF-7/WT—breast adenocarcinoma) and two normal cell lines: Chinese Hamster Ovary (CHO-K1) and immortalized human keratinocytes from histologically normal skin (HaCaT).
(§2) To determine the antiproliferative activity of newly synthesized compounds, the following cell lines were used: human melanotic melanoma cell line (A375), human amelanotic melanoma cell line (C32), human breast adenocarcinoma cell line (MCF-7/WT), human prostate cancer androgen-independent (DU145) and two normal cell lines: hamster ovarian (CHO-K1) and immortalized human keratinocytes from histologically normal skin (HaCaT). The cells were obtained from the cell line bank of the Department of Molecular and Cellular Biology, Wroclaw Medical University. A375, C32, MCF-7/WT, DU145 and HaCaT cells were grown in a monolayer cultured in Dulbecco’s Modified Eagle’s Medium (DMEM, Sigma-Aldrich, Poznań, Poland), supplemented with 10% of fetal bovine serum (FBS, Gibco, Paisley, UK) and 1% of antibiotics (penicillin/streptomycin, Sigma-Aldrich) and CHO-K1 were grown in HAM’s F-12 medium (Sigma-Aldrich), supplemented with 10% fetal bovine serum (FBS, Gibco) and 1% of antibiotics (penicillin/streptomycin, Sigma-Aldrich). Cell lines were cultured in the polystyrene flasks 25 or 75 cm^2 (Thermo Fisher Scientific, Waltham, MA, USA), which were stored in 37 °C and 5% CO2 in a humidified 95% atmosphere (SteriCult, Thermo Scientific, Alab). The cell medium was exchanged twice a week. The exponentially growing cells were used throughout the experiments. The cells were rinsed with phosphate-buffered saline (PBS, Sigma-Aldrich) and trypsinized by Trypsin-EDTA 0.25% solution (Sigma-Aldrich).
(§3) The influence of the compounds was performed in a monolayer culture on cancer and normal cells. Compounds were initially dissolved in DMSO; further dilutions of the compound were performed in Dulbecco’s Modified Eagle’s Medium supplemented with 10% FBS. Compounds were tested in a 50–5000 µM concentration range. In the in vitro experiments, the concentrations of DMSO in the final solution of the compounds were used 0.05%; 0.1%; 0.5%; 1%, respectively.
(§4) Cell viability was determined using the MTT colorimetric assay. All cell lines were seeded into 96-well plates to a density of 3 × 10^4 cells/well. After 24 h, the culture supernatants were removed and appropriate dilutions of compounds in the culture medium (200 µL/well) were added to the cells’ monolayer cultures and incubated for an additional 72 h. After 72 h of exposition to the compounds and the removal of the culture medium, cell viability was determined by reducing the yellow dye 3-(4,5-dimethyl-2-thiazol)-2,5-diphenyl-2H-tetrazolium bromide (MTT assay, Sigma Saint Louis, MO, USA; In Vitro Toxicology Assay) to a blue formazan product. The absorbance of the resulting solutions in three duplicate experiments was measured at the wavelength of 560 nm in a microplate reader (EnSpire, Perkin Elmer, Kraków, Poland). MTT assay is a colorimetric method that estimates the rate of metabolism in viable cells. Absorbance is directly proportional to the number of viable cells. All the experiments were performed three times and the mean absorbance values were calculated. The methodology for the evaluation of the growth of human cancer and normal cells was described previously. The cell viability in each group was expressed as a percentage of control (untreated) cells.

ACHN = assay: NCI-60 screen, Renal Cancer ACHN; type: cell-based, human; conditions: for Growth of Cells (%): 10^−5 M one dose
SR = assay: NCI-60 screen, Leukemia SR; type: cell-based, human
NCI-H460 = assay: NCI-60 screen, Non-Small Cell Lung Cancer NCI-H460; type: cell-based, human; conditions: for Growth of Cells (%): NCI-H460, 10^−5 M one dose
HaCaT = assay: MTT cell viability assay, HaCaT; type: cell-based, human; conditions: Homo sapiens; HaCaT normal cells, MTT, 72 h, mean ± SD
Procedure: as §1, §2, §3, §4

UO-31 = assay: NCI-60 screen, Renal Cancer UO-31; type: cell-based; conditions: for Growth of Cells (%): UO-31, 10^−5 M one dose
786-0 = assay: NCI-60 screen, Renal Cancer 786-0; type: cell-based; conditions: for Growth of Cells (%): 786-0, 10^−5 M one dose
HOP-62 = assay: NCI-60 screen, Non-Small Cell Lung Cancer HOP-62; type: cell-based; conditions: for Growth of Cells (%): HOP-62, 10^−5 M one dose
MCF7 = assay: NCI-60 screen, Breast Cancer MCF7; type: cell-based, human; conditions: for Growth of Cells (%): MCF7, 10^−5 M one dose
SF-268 = assay: NCI-60 screen, CNS Cancer SF-268; type: cell-based, human; conditions: for Growth of Cells (%): SF-268, 10^−5 M one dose
HCT-116 = assay: NCI-60 screen, Colon Cancer HCT-116; type: cell-based, human; conditions: for Growth of Cells (%): HCT-116, 10^−5 M one dose
MOLT-4 = assay: NCI-60 screen, Leukemia MOLT-4; type: cell-based, human; conditions: for Growth of Cells (%): MOLT-4, 10^−5 M one dose
CHO-K1 = assay: MTT cell viability assay, CHO-K1; type: cell-based, Chinese Hamster; conditions: Cricetulus griseus; CHO-K1 normal cells, MTT, 72 h, mean ± SD
Procedure: as §1, §2, §3, §4

A375 = assay: MTT cell viability assay, A375; type: cell-based, human; conditions: Homo sapiens; for IC50: A-375, 72 h, A375, MTT, mean ± SD
Procedure: as §1, §2, §3, §4

KM12 = assay: NCI-60 screen, Colon Cancer KM12; type: cell-based, human; conditions: for Growth of Cells (%): KM12, 10^−5 M one dose
MCF-7/WT = assay: MTT cell viability assay, MCF-7/WT; type: cell-based; conditions: Homo sapiens, MCF7, 72 h, mean ± SD
Procedure: as §1, §2, §3, §4

HS 578T = assay: NCI-60 screen, Breast Cancer HS 578T; type: cell-based, human; conditions: for Growth of Cells (%): 10^−5 M one dose
SK-MEL-28 = assay: NCI-60 screen, Melanoma SK-MEL-28; type: cell-based; conditions: for Growth of Cells (%): SK-MEL-28, 10^−5 M one dose
A549/ATCC = assay: NCI-60 screen, Non-Small Cell Lung Cancer A549/ATCC; type: cell-based, human; conditions: for Growth of Cells (%): 10^−5 M one dose
UACC-62 = assay: NCI-60 screen, Melanoma UACC-62; type: cell-based, human; conditions: UACC-62, 10^−5 M one dose
SN12C = assay: NCI-60 screen, Renal Cancer SN12C; type: cell-based; conditions: for Growth of Cells (%): 10^−5 M one dose
[1] = Homo sapiens, five doses 10^−4–10^−8 M
[2] = Homo sapiens, five doses 10^−4–10^−8 M, read-out: log LC50 (the source's name) (converted)
[3] = Homo sapiens, MOLT-4, five doses 10^−4–10^−8 M

## FC(F)(F)c1nc(Cl)c2sc(=S)n(-c3ccccc3)c2n1 [Compound 3b, 7-chloro-3-phenyl-5-(trifluoromethyl)[1, 3]thiazolo[4,5-d]pyrimidine-2(3H)-thione]
T-47D; Homo sapiens, T47D, read-out: log GI50 (converted)
  GI50: 1.86 µM
T-47D; Homo sapiens, T47D, T-47D, five doses 10^−4–10^−8 M, read-out: log LC50 (the source's name) (converted)
  CC50: 66.1 µM
T-47D; T-47D
  Growth of Cells (%): −35.57%
T-47D; T-47D, five doses 10^−4–10^−8 M
  log TGI: −5.32 log M
C32
  IC50: 24.4 ± 0.5 µM
C32; C32 amelanotic melanoma, 50 µM
  viability at 50 µM: 20%
ACHN
  Growth of Cells (%): 27.40%
ACHN; [1]
  GI50: 1.74 µM
ACHN; [2]
  CC50: 6.31 µM
ACHN; five doses 10^−4–10^−8 M
  log TGI: −5.48 log M
SR; [1]
  GI50: 0.437 µM
SR; [2]
  CC50: > 100 µM
SR; five doses 10^−4–10^−8 M
  log TGI: −5.70 log M
NCI-H460; Homo sapiens, NCI-H460, five doses 10^−4–10^−8 M
  GI50: 3.24 µM
NCI-H460; Homo sapiens, NCI-H460, five doses 10^−4–10^−8 M, read-out: log LC50 (the source's name) (converted)
  CC50: 50.1 µM
NCI-H460
  Growth of Cells (%): 68.89%
NCI-H460; NCI-H460, five doses 10^−4–10^−8 M
  log TGI: −4.99 log M
HaCaT
  IC50: 33.5 ± 0.7 µM
UO-31; Homo sapiens, UO-31, read-out: log GI50 (converted)
  GI50: 1.7 µM
UO-31; Homo sapiens, UO-31, five doses 10^−4–10^−8 M, read-out: log LC50 (the source's name) (converted)
  CC50: 6.03 µM
UO-31
  Growth of Cells (%): −82.97%
UO-31; UO-31, five doses 10^−4–10^−8 M
  log TGI: −5.49 log M
786-0
  Growth of Cells (%): 90.12%
786-0; 786-0, five doses 10^−4–10^−8 M
  log TGI: −5.42 log M
786-0; Homo sapiens, 786-0, five doses 10^−4–10^−8 M
  GI50: 1.95 µM
786-0; Homo sapiens, 786-0, five doses 10^−4–10^−8 M, read-out: log LC50 (the source's name) (converted)
  CC50: 7.41 µM
HOP-62
  Growth of Cells (%): 95.98%
HOP-62; HOP-62, five doses 10^−4–10^−8 M
  log TGI: −5.46 log M
HOP-62; Homo sapiens, HOP-62, read-out: log GI50 (converted)
  GI50: 1.86 µM
HOP-62; Homo sapiens, HOP-62, five doses 10^−4–10^−8 M, read-out: log LC50 (the source's name) (converted)
  CC50: 6.31 µM
MCF7; Homo sapiens, MCF7, five doses 10^−4–10^−8 M
  GI50: 2.24 µM
MCF7; Homo sapiens, MCF7, five doses 10^−4–10^−8 M, read-out: log LC50 (the source's name) (converted)
  CC50: 57.5 µM
MCF7
  Growth of Cells (%): 22.84%
MCF7; MCF7, five doses 10^−4–10^−8 M
  log TGI: −5.25 log M
SF-268; Homo sapiens, SF-268, five doses 10^−4–10^−8 M
  GI50: 1.78 µM
SF-268; Homo sapiens, SF-268, five doses 10^−4–10^−8 M, read-out: log LC50 (the source's name) (converted)
  CC50: 6.61 µM
SF-268
  Growth of Cells (%): 84.73%
HCT-116
  Growth of Cells (%): −27.21%
HCT-116; HCT-116, five doses 10^−4–10^−8 M
  log TGI: −5.47 log M
HCT-116; Homo sapiens, HCT-116, five doses 10^−4–10^−8 M
  GI50: 1.74 µM
HCT-116; Homo sapiens, HCT-116, five doses 10^−4–10^−8 M, read-out: log LC50 (the source's name) (converted)
  CC50: 6.61 µM
MOLT-4; [3]
  GI50: 3.09 µM
  LC50: > 100 µM
MOLT-4
  Growth of Cells (%): −27.71%
MOLT-4; MOLT-4, five doses 10^−4–10^−8 M
  log TGI: −5.07 log M
CHO-K1
  IC50: 75.5 ± 1.6 µM
A375
  IC50: 25.4 ± 0.5 µM
A375; A-375, A375 melanotic melanoma, 50 µM, 72 h
  viability at 50 µM: 20%
KM12; Homo sapiens, KM12, five doses 10^−4–10^−8 M
  GI50: 2.29 µM
KM12; Homo sapiens, KM12, five doses 10^−4–10^−8 M, read-out: log LC50 (the source's name) (converted)
  CC50: 14.5 µM
KM12
  Growth of Cells (%): 90.93%
KM12; KM12, five doses 10^−4–10^−8 M
  log TGI: −5.30 log M
MCF-7/WT
  IC50: 49 ± 1 µM
HS 578T
  Growth of Cells (%): 21.84%
HS 578T; [1]
  GI50: 2.82 µM
HS 578T; [2]
  CC50: > 100 µM
HS 578T; five doses 10^−4–10^−8 M
  log TGI: −5.07 log M
SK-MEL-28; Homo sapiens, SK-MEL-28, five doses 10^−4–10^−8 M
  GI50: 1.95 µM
SK-MEL-28; Homo sapiens, SK-MEL-28, five doses 10^−4–10^−8 M, read-out: log LC50 (the source's name) (converted)
  CC50: 6.46 µM
SK-MEL-28
  Growth of Cells (%): −62.53%
SK-MEL-28; SK-MEL-28, five doses 10^−4–10^−8 M
  log TGI: −5.45 log M
A549/ATCC
  Growth of Cells (%): 91.16%
A549/ATCC; [1]
  GI50: 7.59 µM
  LC50: 53.7 µM
A549/ATCC; five doses 10^−4–10^−8 M
  log TGI: −4.66 log M
UACC-62
  Growth of Cells (%): 79.14%
SN12C
  Growth of Cells (%): 85.61%
SN12C; [2]
  CC50: 40.7 µM
SN12C; Homo sapiens, read-out: log GI50 (converted)
  GI50: 3.55 µM
SN12C; five doses 10^−4–10^−8 M
  log TGI: −4.88 log M

## CCNc1nc(C(F)(F)F)nc2c1sc(=S)n2-c1ccccc1 [Compound 4b, 7-(ethylamino)-3-phenyl-5-(trifluoromethyl)[1, 3]thiazolo[4,5-d]pyrimidine-2(3H)-thione]
T-47D; T-47D
  Growth of Cells (%): 73.92%
C32
  IC50: 356 ± 15.2 µM
ACHN
  Growth of Cells (%): 93.13%
SR; 10^−5 M one dose
  Growth of Cells (%): 83.46%
NCI-H460
  Growth of Cells (%): 100.34%
HaCaT
  IC50: 730 ± 31.1 µM
UO-31
  Growth of Cells (%): 103.75%
786-0
  Growth of Cells (%): 101.39%
HOP-62
  Growth of Cells (%): 86.06%
MCF7
  Growth of Cells (%): 96.38%
SF-268
  Growth of Cells (%): 104.72%
HCT-116
  Growth of Cells (%): 94.34%
MOLT-4
  Growth of Cells (%): 81.83%
CHO-K1
  IC50: 237 ± 10.1 µM
A375
  IC50: 524 ± 22.3 µM
KM12
  Growth of Cells (%): 89.17%
MCF-7/WT
  IC50: 686 ± 29.3 µM
HS 578T
  Growth of Cells (%): 106.83%
SK-MEL-28
  Growth of Cells (%): 112.46%
A549/ATCC
  Growth of Cells (%): 74.36%
UACC-62
  Growth of Cells (%): 93.86%
SN12C
  Growth of Cells (%): 100.30%
